According to patent publication US6376200B1, “Kainate-binding, human CNS receptors of the EAA4 family” (priority 1992, dated 2002):
Where two headings read alike, the source gives them in different places.

Key:
[1] = biological target: T1, human EAA4a receptor (Homo sapiens, UniProt Q13002); type: cell-based; design: transported to the cell surface in mature form, lacking the signal peptide and consisting of 877 amino acids; expressed in transfected cells; host or cells: Xenopus oocytes (stage V or VI), nuclear injection of pcDNAI/humEAA4a DNA; details: for oocyte response to agonist: tested at -60, -80 and -100 mV
T1 sequence (Q13002 32-908): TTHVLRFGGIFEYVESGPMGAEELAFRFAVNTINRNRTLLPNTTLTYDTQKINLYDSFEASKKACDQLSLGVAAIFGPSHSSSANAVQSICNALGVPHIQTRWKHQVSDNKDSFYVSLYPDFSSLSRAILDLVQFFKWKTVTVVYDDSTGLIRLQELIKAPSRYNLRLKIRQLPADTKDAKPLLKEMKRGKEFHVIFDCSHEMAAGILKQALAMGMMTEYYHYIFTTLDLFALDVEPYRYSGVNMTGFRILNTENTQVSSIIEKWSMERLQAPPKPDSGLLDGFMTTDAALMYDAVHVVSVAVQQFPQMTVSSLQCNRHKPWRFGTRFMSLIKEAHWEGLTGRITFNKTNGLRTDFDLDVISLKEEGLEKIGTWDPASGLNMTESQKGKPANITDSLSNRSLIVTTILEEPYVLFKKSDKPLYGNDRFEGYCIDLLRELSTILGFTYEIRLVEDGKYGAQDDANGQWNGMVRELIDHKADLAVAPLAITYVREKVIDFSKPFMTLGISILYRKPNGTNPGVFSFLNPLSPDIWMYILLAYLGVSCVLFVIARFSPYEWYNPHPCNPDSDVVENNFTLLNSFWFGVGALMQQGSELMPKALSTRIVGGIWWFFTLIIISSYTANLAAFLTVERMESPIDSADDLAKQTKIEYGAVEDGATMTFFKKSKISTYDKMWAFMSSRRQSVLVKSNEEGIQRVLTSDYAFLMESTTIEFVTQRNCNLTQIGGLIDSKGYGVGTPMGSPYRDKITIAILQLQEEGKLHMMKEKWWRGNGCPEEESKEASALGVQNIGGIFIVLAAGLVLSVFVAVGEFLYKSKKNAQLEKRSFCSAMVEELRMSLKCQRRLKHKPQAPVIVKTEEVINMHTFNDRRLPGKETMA
Description: Xenopus oocytes (stage V or VI) were harvested and the nucleus of the oocytes was injected with 5 ng of pcDNAI/humEAA4a DNA.

[2] = biological target: T1, human EAA4a receptor; details: COS cell membranes
Description: Transfected cells in the frozen state were resuspended in ice-cold distilled water using a hand homogenizer and centrifuged for 20 miutes at 50,000 g. The supernatant was discarded and the membrane pellet stored frozen at −70° C.
Proteins were determined using the Pierce Reagent with BSA as standard.
Binding assays were then performed, using an amount of COS-derived membrane equivalent to 25-100 ug as judged by protein determination and selected radiolabelled ligand. […] Samples were incubated on ice for 60 minutes, and bound and free ligand were then separated by rapid filtration using a PHD cell harvester and GF/B filters pre-soaked in ice-cold 0.3% polyethyleneimine. Filters were washed twice in 4 ml of the cold incubation buffer, then placed in scintillation vials with 5 ml of Beckman Ready-Protein Plus scintillation cocktail for counting.
Samples were incubated on ice for 60 minutes in plastic minivials, and bound and free ligand were separated by centrifugation for 30 minutes at 50,000 g. Pellets were washed twice in 4 ml of the cold incubation buffer, then 5 ml of Beckman Ready-Protein Plus scintillation cocktail was added, for counting.

| SMILES | effect on the dose/response curve for L-glutamate ([1]; DNQX 2×10^-6M, FIG. 10) | effect on the glutamate response ([1]; oocytes, FIG. 8) | oocyte response to agonist ([1]; 10^-4M) | oocyte response to agonist ([1]; NMDA 10^-4M with glycine 10^-6M) | binding to EAA4a receptor [2] |
| --- | --- | --- | --- | --- | --- |
| O=C1N=c2cc([N+](=O)[O-])c([N+](=O)[O-])cc2=NC1=O [DNQX, 6,7-dinitroquinoxaline-2,3-dione] | parallel shift of the dose/response curve for L-glutamate to the right | blocked the glutamate response |  |  |  |
| CN[C@H](CC(=O)O)C(=O)O [NMDA, N-methyl-D-aspartate] |  |  | did not respond | did not respond | little or no demonstrable binding |
